Patent US11433055B2, “Chromane monobactam compounds for the treatment of bacterial infections” (priority 2017, dated 2022)
Where two headings read alike, the source gives them in different places.

Assays:
Assay type in all cases: cell-based
Details in all cases: lowest concentration inhibiting 95% of bacterial growth, in the presence of β lactamase inhibitor (BLi, Relebactam), 22 hours, 35±2° C., OD600
[1] = test system: Pseudomonas aeruginosa expressing AmpC (CL5701)
Protocol: (§1) Antibiotic Activity: Determination of Growth Inhibitory Concentration
(§2) The concentrations of compounds required to inhibit the growth of various strains of bacteria were determined in an assay that assessed bacterial growth by measuring optical density at 600 nm (OD600). The bacterial strains tested included the clinical strains Escherichia coli expressing NDM-1 (CLB30016), Klebsiella pneumoniae expressing KPC-1 (CL6569), Acinetobacter baumannii expressing TEM-1, AmpC, and Oxa-24/40 (CL6188) and Pseudomonas aeruginosa expressing AmpC (CL5701). All compounds were tested in the presence of a β lactamase inhibitor (BLi, Relebactam) in 384-well microplates. The clinical strains were stored as frozen single use stocks, thawed and diluted into 1.1× cation-adjusted Mueller-Hinton II broth to achieve approximately 2×10^5 CFU/mL. Test compounds were dissolved in DMSO and diluted 1:50 in the assay, resulting in a final concentration range of 100 μM to 0.098 μM. On the day of the assay, 1 μL of test compound was added to the plate followed by 4 μL of 50 μg/mL BLi in MOPS buffer and 45 μL of diluted bacteria. Plates were centrifuged at 1000 rpm for 30 seconds, shaken at approximately 800 rpm for 1 minute, and incubated at 35±2° C. for 22 hours. The concentration of BLi used in the assay was […]. At the end of the incubation, absorbance at 600 nm was determined using a spectrophotometer. Inhibition was quantitated by identifying the lowest concentration of test compound that was required to inhibit 95% of the growth of the bacteria. The results for Examples 1-39 are reported in Table I, expressed as the concentration of compound that inhibited 95% of bacterial growth (Minimum Inhibitory Threshold Concentration; MITC95).

[2] = test system: Acinetobacter baumannii expressing TEM-1, AmpC, and Oxa-24/40 (CL6188)
Protocol: as §1, §2

[3] = test system: Escherichia coli expressing NDM-1 (CLB30016)
Protocol: as §1, §2

[4] = test system: Klebsiella pneumoniae expressing KPC-1 (CL6569)
Protocol: as §1, §2

In the case of `C[n+]1cc(-c2ccc3c(c2)CC[C@H]([C@](C)(O/N=C(\C(=O)N[C@@H]2C(=O)N(OS(=O)(=O)[O-])C2(C)C)c2csc(N)n2)C(=O)O)O3)cnc1N(CCN)CC1CNC1.O=CO` [Example 15, (S)-3-((Z)-2-(((S)-1-((R)-6-(2-((2-aminoethyl)(azetidin-1-ium-3-ylmethyl)amino)-1-methylpyrimidin-1-ium-5-yl)chroman-2-yl)-1-carboxyethoxy)imino)-2-(2-aminothiazol-4-yl)acetamido)-2,2-dimethyl-4-oxoazetidin-1-yl sulfate formate], the “PA_CL5701 MITC95” value [1] is reported as 6.25 µM, the “AB_CL6188 MITC95” value [2] is reported as 3.125 µM and the “EC_CLB30016 MITC95” value [3] is reported as 6.25 µM. The “KP_CL6569 MITC95” value [4] was 0.3906 µM.
With `C[n+]1cc(-c2ccc3c(c2)CC[C@H]([C@](C)(O/N=C(\C(=O)N[C@@H]2C(=O)N(OS(=O)(=O)[O-])C2(C)C)c2csc(N)n2)C(=O)O)O3)ccc1CC(CN)CN.O=CO` [Example 16, (3S)-3-((Z)-2-(((1S)-1-((2R)-6-(6-(3-amino-2-(ammonio-methyl)propyl)-1-methylpyridin-1-ium-3-yl)chroman-2-yl)-1-carboxyethoxy)imino)-2-(2-aminothiazol-4-yl)acetamido)-2,2-dimethyl-4-oxoazetidin-1-yl sulfate formate] the “PA_CL5701 MITC95” value [1] was 3.125 µM, the “AB_CL6188 MITC95” value [2] was 3.125 µM and the “EC_CLB30016 MITC95” value [3] was 6.25 µM. For the same molecule, the “KP_CL6569 MITC95” value [4] was 0.3906 µM.
For `C[n+]1cc(-c2ccc3c(c2)CC[C@H]([C@](C)(O/N=C(\C(=O)N[C@@H]2C(=O)N(OS(=O)(=O)[O-])C2(C)C)c2csc(N)n2)C(=O)O)O3)cnc1NC[C@H](O)CN.O=CO` [Example 17, (S)-3-((Z)-2-(2-aminothiazol-4-yl)-2-(((S)-1-((R)-6-(2-(((R)-3-ammonio-2-hydroxy-propyl)amino)-1-methyl-pyrimidin-1-ium-5-yl)chroman-2-yl)-1-carboxy-ethoxy)imino)acetamido)-2,2-dimethyl-4-oxoazetidin-1-yl sulfate formate], the “PA_CL5701 MITC95” value [1] was 6.25 µM, the “AB_CL6188 MITC95” value [2] was 12.5 µM and the “EC_CLB30016 MITC95” value [3] was 6.25 µM. For the same molecule, the “KP_CL6569 MITC95” value [4] was 0.3906 µM.
In the case of `C[n+]1cc(-c2ccc3c(c2)CC[C@H]([C@](C)(O/N=C(\C(=O)N[C@@H]2C(=O)N(OS(=O)(=O)[O-])C2(C)C)c2csc(N)n2)C(=O)O)O3)cnc1NC[C@@H](O)CN.O=CO` [Example 18, (S)-3-((Z)-2-(2-aminothiazol-4-yl)-2-(((S)-1-((R)-6-(2-(((S)-3-ammonio-2-hydroxy-propyl)amino)-1-methylpyrimidin-1-ium-5-yl)chroman-2-yl)-1-carboxy-ethoxy)imino)acetamido)-2,2-dimethyl-4-oxoazetidin-1-yl sulfate formate], the “PA_CL5701 MITC95” value [1] is reported as 6.25 µM, the “AB_CL6188 MITC95” value [2] is reported as 3.125 µM and the “EC_CLB30016 MITC95” value [3] is reported as 6.25 µM. The “KP_CL6569 MITC95” value [4] was 0.3906 µM.
With `CC1(C)[C@H](NC(=O)/C(=N\O[C@](C)(C(=O)O)[C@H]2CCc3cc(-c4cnc(NC[C@H](O)CN)[n+](CC5CNC5)c4)ccc3O2)c2csc(N)n2)C(=O)N1OS(=O)(=O)[O-].O=CO` [Example 19, (S)-3-((Z)-2-(((S)-1-((R)-6-(2-(((R)-3-amino-2-hydroxy-propyl)amino)-1-(azetidin-1-ium-3-ylmethyl)pyrimidin-1-ium-5-yl)chroman-2-yl)-1-carboxyethoxy)imino)-2-(2-aminothiazol-4-yl)acetamido)-2,2-dimethyl-4-oxoazetidin-1-yl sulfate formate] the “PA_CL5701 MITC95” value [1] was 12.5 µM, the “AB_CL6188 MITC95” value [2] was 12.5 µM and the “EC_CLB30016 MITC95” value [3] was 6.25 µM. The “KP_CL6569 MITC95” value [4] was 0.7813 µM.
`CC1(C)[C@H](NC(=O)/C(=N\O[C@](C)(C(=O)O)[C@H]2CCc3cc(-c4cnc(NC[C@@H](O)CN)[n+](CC5CNC5)c4)ccc3O2)c2csc(N)n2)C(=O)N1OS(=O)(=O)[O-].O=CO` [Example 20, (S)-3-((Z)-2-(((S)-1-((R)-6-(2-(((S)-3-amino-2-hydroxy-propyl)amino)-1-(azetidin-1-ium-3-ylmethyl)pyrimidin-1-ium-5-yl)chroman-2-yl)-1-carboxyethoxy)imino)-2-(2-aminothiazol-4-yl)acetamido)-2,2-dimethyl-4-oxoazetidin-1-yl sulfate formate] was tested, and the “PA_CL5701 MITC95” value [1] was 6.25 µM, the “AB_CL6188 MITC95” value [2] was 6.25 µM and the “EC_CLB30016 MITC95” value [3] was 6.25 µM. For the same molecule, the “KP_CL6569 MITC95” value [4] was 0.3906 µM.
For `CC1(C)[C@H](NC(=O)/C(=N\O[C@](C)(C(=O)O)[C@H]2CCc3cc(-c4ccc(NCCCN)[n+](CCCN)c4)ccc3O2)c2csc(N)n2)C(=O)N1OS(=O)(=O)[O-].O=CO` [Example 21, (S)-3-((Z)-2-(((S)-1-((R)-6-(1-(3-aminopropyl)-6-((3-ammoniopropyl)amino)pyridin-1-ium-3-yl)chroman-2-yl)-1-carboxyethoxy)imino)-2-(2-aminothiazol-4-yl)acetamido)-2,2-dimethyl-4-oxoazetidin-1-yl sulfate formate], the “PA_CL5701 MITC95” value [1] was 12.5 µM, the “AB_CL6188 MITC95” value [2] was 3.125 µM and the “EC_CLB30016 MITC95” value [3] was 6.25 µM. The “KP_CL6569 MITC95” value [4] was 0.3906 µM.
In the case of `CC1(C)[C@H](NC(=O)/C(=N\O[C@](C)(C(=O)O)[C@H]2CCc3cc(-c4ccc(NCCCN)[n+](CC5CNC5)c4)ccc3O2)c2csc(N)n2)C(=O)N1OS(=O)(=O)[O-].O=CO` [Example 22, (S)-3-((Z)-2-(((S)-1-((R)-6-(6-((3-aminopropyl)amino)-1-(azetidin-1-ium-3-ylmethyl)pyridin-1-ium-3-yl)chroman-2-yl)-1-carboxyethoxy)imino)-2-(2-aminothiazol-4-yl)acetamido)-2,2-dimethyl-4-oxoazetidin-1-yl sulfate formate], the “PA_CL5701 MITC95” value [1] is reported as 25 µM, the “AB_CL6188 MITC95” value [2] is reported as 12.5 µM and the “EC_CLB30016 MITC95” value [3] is reported as 12.5 µM. The “KP_CL6569 MITC95” value [4] was 0.7813 µM.
`C[n+]1cc(-c2ccc3c(c2)CC[C@H]([C@](C)(O/N=C(\C(=O)N[C@@H]2C(=O)N(OS(=O)(=O)[O-])C2(C)C)c2csc(N)n2)C(=O)O)O3)ccc1NC(CN)CN.O=CO` [Example 23A, (3S)-3-((Z)-2-(((1S)-1-((2R)-6-(6-((1-amino-3-ammoniopropan-2-yl)amino)-1-methylpyridin-1-ium-3-yl)chroman-2-yl)-1-carboxyethoxy)imino)-2-(2-aminothiazol-4-yl)acetamido)-2,2-dimethyl-4-oxoazetidin-1-yl sulfate formate] was tested, and the “PA_CL5701 MITC95” value ([1]; sulfate formate) was 3.125 µM, the “AB_CL6188 MITC95” value ([2]; sulfate formate) was 6.25 µM and the “EC_CLB30016 MITC95” value ([3]; sulfate formate) was 12.5 µM. The “KP_CL6569 MITC95” value ([4]; sulfate formate) was 0.3906 µM.
For `C[n+]1cc(-c2ccc3c(c2)CC[C@H]([C@](C)(O/N=C(\C(=O)N[C@@H]2C(=O)N(OS(=O)(=O)[O-])C2(C)C)c2csc(N)n2)C(=O)O)O3)ccc1NC(CN)CN.O=CO` [Example 23B, (3S)-3-((Z)-2-(((1S)-1-((2R)-6-(6-((1-amino-3-ammoniopropan-2-yl)amino)-1-methylpyridin-1-ium-3-yl)chroman-2-yl)-1-carboxyethoxy)imino)-2-(2-aminothiazol-4-yl)acetamido)-2,2-dimethyl-4-oxoazetidin-1-yl sulfate formate], the “PA_CL5701 MITC95” value ([1]; sulfate formate) was 25 µM, the “AB_CL6188 MITC95” value ([2]; sulfate formate) was 12.5 µM and the “EC_CLB30016 MITC95” value ([3]; sulfate formate) was 100 µM. For the same molecule, the “KP_CL6569 MITC95” value ([4]; sulfate formate) was 3.125 µM.
For `C[n+]1cc(-c2ccc3c(c2)CC[C@H]([C@](C)(O/N=C(\C(=O)N[C@@H]2C(=O)N(OS(=O)(=O)[O-])C2(C)C)c2csc(N)n2)C(=O)O)O3)cnc1NC(CN)CN.O=CO` [Example 24, (3S)-3-((Z)-2-(((1S)-1-((2R)-6-(2-((1-amino-3-ammonio-propan-2-yl)amino)-1-methyl-pyrimidin-1-ium-5-yl)chroman-2-yl)-1-carboxyethoxy)imino)-2-(2-aminothiazol-4-yl)acetamido)-2,2-dimethyl-4-oxoazetidin-1-yl sulfate formate], the “PA_CL5701 MITC95” value [1] was 3.125 µM, the “AB_CL6188 MITC95” value [2] was 1.563 µM and the “EC_CLB30016 MITC95” value [3] was 3.125 µM. For the same molecule, the “KP_CL6569 MITC95” value [4] was 0.3906 µM.
